The values that follow come from patent US20250120963A1, “METHODS AND COMPOSITIONS FOR THE TREATMENT OF THROMBOCYTOPENIA” (THE CHILDREN'S MEDICAL CENTER CORPORATION, priority 2023, published 2025).

The subject of data set [1] is mice. Particulars: 50 mg/kg daily i.p.; Niraparib 10 days, Olaparib 3 days. On the procedure:
Mice were treated with 50 mg/kg Niraparib or Olaparib daily (i.p.) for 10 or 3 days, respectively, and platelet counts measured by SYSMEX™.
FIG. 21A) Platelet count versus time. FIG. 21B) RBC count versus time. FIG. 21C) WBC count versus time.
8,9 Mice were treated with 50 mg/kg of Niraparib and Olaparib […].

In data set [2] the test system is C57B1/6 mice. The data set can be described thus: Olaparib 50 mg/kg i.p. 5 consecutive days each week in C57B1/6 mice, 2-week and 4-week experiments. Format: in vivo. On the procedure:
C57B1/6 mice dosed with 50 mg/kg Olaparib intraperitoneally for 5 days consecutive days each week. Dark gray=vehicle, light gray=Olaparib.
Olaparib treatment increases platelet count and alters megakaryocyte ploidy in mice. C57B1/6 mice were dosed with 50 mg/kg Olaparib intraperitoneally for 5 days consecutive days each week.

The subject of data set [3] is lineage depleted murine bone marrow. The data set can be described thus: In vitro megakaryocyte differentiation: lineage depleted bone marrow cultured with TPO for 4 days with PARPi (VWF-GFP signal). Format: cell-based. Particulars: for megakaryocyte differentiation / megakaryopoiesis in vitro: TPO, 4 days, PARPi vs vehicle. The method, then:
Lineage depleted bone marrow was cultured with TPO for 4 days in the presence of PARPi or vehicle controls. FIG. 14A) representative images of VWF-GFP signal. FIG. 14B) Mean normalized area of GFP signal (n=3). Error bars±SEM.Circles=Olaparib, squares=Niraparib, triangles=Rucaparib.
Lineage depleted bone marrow was cultured with TPO for 4 days in the presence of PARPi or vehicle controls (FIG. 14A-14B).
Lineage depleted murine bone marrow was cultured with TPO for 4 days in the presence of PARPi or vehicle controls (FIG. 14A-14B).

Data set [4] relates to PARylation in megakaryocytes. The data set can be described thus: PARylation western blot in megakaryocytes subjected to hydrogen peroxide with or without Olaparib. The class given is cell-based, murine. Conditions: 10 mM H2O2; Olaparib 30 μM or 3 μM. The method, then: Lineage depleted murine bone marrow was cultured with TPO for 4 days. Gradient-isolated megakaryocytes subjected to 10 mM of hydrogen peroxide (H2O2) in the presence or absence of Olaparib (30 μM or 3 μM). Cells were subsequently lysed in RIPA buffer containing protease inhibitor cocktail. A western blot to detect PARylation was performed. Equal loading was confirmed using an anti-GAPDH antibody. Impage shown is a representative of three experiments.
Lineage depleted murine bone marrow was cultured with TPO for 4 days. Gradient-isolated megakaryocytes were subjected to 10 mM of hydrogen peroxide (H2O2) in the presence or absence of olaparib (30 μM or 3 μM). Cells were subsequently lysed in RIPA buffer containing protease inhibitor cocktail. A western blot to detect PARylation was performed (FIG. 18). Equal loading was confirmed using an anti-GAPDH antibody.
In general terms: In western blotting, separated proteins are transferred to a membrane and probed.

Data set [5] has as its system mice. The method, then:
Mice were given Niraparib (25 mg/kg, intraperitoneal) or vehicle control for 11 days. FIG. 5A) Platelet counts and immature platelet fraction were measured on a SYSMEX™ hematology analyzer. Line graph: Black circles=Vehicle, gray squares=Niraparib. Bar charts: black=Vehicle, gray=Niraparib. FIG. 5B) MKs and MK-biased HSC counts. Dark gray=DMSO (vehicle), light gray=Niraparib. FIG. 5C) expression of γH2AX. Left bar=control, right bar=Niraparib, and FIG. 5D) MK ploidy was determined by flow cytometry (see FIGS. 9A-9C). n=4-5 mice per group. Gray=Niraparib, black=Vehicle.
Mice were treated with a subtherapeutic dosage of the PARP inhibitor Niraparib (25 mg/kg, intraperitoneal) or saline control for 11 days. The dosing schedule was as follows: 5 consecutive days of Niraparib treatment followed by 2 days of drug holiday (no injection), then 4 more consecutive days of Niraparib treatment. Mice were sacrificed on day 11. Platelet counts were taken on days 0 (pre-treatment), 2, 7, 9, and 11. Cohorts of mice were sacrificed on days 3 and 11 for quantification of bone MK and progenitor populations. […] To.
Niraparib treatment were measured.

Data set [6] concerns MKs in calvaria bone marrow of vWF-GFP reporter mice. Conditions: 25 mg/kg, 7 days, vs DMSO. The method, then: (§1) While MK ploidy is not directly causative of platelet production, higher ploidy MKs are associated with increased platelet production and ploidy status is indicative of more terminal MK maturation. To look further at live MKs, 2-photon intravital microscopy (2PIVM) was performed in the calvaria of vWF-GFP reporter mice (MKs and platelets are GFP+) treated with 25 mg/kg Niraparib or vehicle control DMSO for 7 days. Mice were anesthetized and a window in the calvaria was made to view the exposed bone marrow.

Data set [7] relates to platelets. Conditions: platelets drawn on D11, 25 mg/kg; stimulated with ADP, TRAP or CRP; listed as niraparib. The method, then:
Platelets were drawn from mice at sacrifice on D11 (see FIG. 6), stimulated with agonists as indicated, and the MFI of activated αIIbβ3 measured by flow cytometry. Black markers=saline, gray markers=Niraparib, 25 mg/kg.
Platelets were drawn from mice at sacrifice on D11, stimulated with agonists as indicated, and the MFI of activated αIIbβ3 measured by flow cytometry. Black=saline, gray=Niraparib (25 mg/kg).
as §1
Platelets were drawn from mice at sacrifice on D11, stimulated with agonists as indicated, and the MFI of activated αIIbβ3 measured by flow cytometry.

For data set [8] the following is noted: 0.03 μM vs vehicle.
In data set [9] the test system is patients. Particulars: ITP patients; cited from earlier work.

Bounds are passed on as bounds.

Regarding `O=C(c1cc(Cc2n[nH]c(=O)c3ccccc23)ccc1F)N1CCN(C(=O)C2CC2)CC1` [Olaparib, 4-[(3-[(4-cyclopropylcarbonyl)piperazin-4-yl]carbonyl)-4-fluorophenyl]methyl (2H) phthalazin-1-one], the “platelet counts at 50 mg/kg” value in data set [1] is “severe thrombocytopenia”. In data set [2] (2-week and 4-week experiments), the “platelet counts after day 6” value is on record as “returned to approximately baseline”. Besides, in data set [2] (2 weeks), the “megakaryocyte ploidy shift after 2-weeks” value is “fewer 8N and more 32N cells”; the “number of megakaryocytes (CD41+CD42+ flow cytometry of bone marrow) at 2-weeks” value is “trend to fewer megakaryocytes”. Besides, in [2] (4 weeks), the “megakaryocyte ploidy shift after 4-weeks” value was “more 8N and fewer 16N cells”; the “number of megakaryocytes (CD41+CD42+ flow cytometry of bone marrow) at 4-weeks” value is given as “trend to fewer megakaryocytes”. Moreover, in data set [2] (increase found at day 6, 2-week and 4-week experiments), the platelet count result is “surprising increase in platelet count”. For the same compound, the “megakaryocyte differentiation / megakaryopoiesis in vitro” value in [3] is listed as “reduce megakaryocyte differentiation”. For the same compound, in data set [4], the “megakaryocyte PARylation” value is “reverses PARylation pattern”.

Take `NC(=O)c1cccc2cn(-c3ccc([C@@H]4CCCNC4)cc3)nc12` [Niraparib, 2-{4-[(3S)-Piperidin-3-yl]phenyl}-2H-indazole-7-carboxamide]: in data set [5] (25 mg/kg i.p.), the “number of MK-committed HSCs positive for γH2AX” value is listed as “significantly increased” and the “γH2AX-positive MKPs” value is reported as “trend to more”. In addition, in [5] (25 mg/kg i.p., 11 days), the “2N MKs” value is listed as “almost no 2N MKs” and the “number of 32N MKs” value was “large increase”. The “MK number / MK counts” value in data set [5] (25 mg/kg i.p., bone marrow, flow cytometry, listed as niraparib) is recorded as “increases”. Besides, the “MK-committed HSCs (CD41+LT-HSCs) counts” value in data set [5] (25 mg/kg i.p., days preceding the increase in platelet counts) is “significant increase”. The immature platelet fraction result in data set [5] (25 mg/kg i.p., from day 7, vs saline) is “significant increase”. Also, the “platelets, percent of normal levels” value in data set [5] (Niraparib treated mice) is recorded as > 150 % of normal levels. The “MKs in day 3 HSPC/myeloid panel” value in data set [5] (day 3, committed progenitors and classical hematopoiesis pathways) is listed as “Significant increase in MKs”. Moreover, the “day 11 HSPC/myeloid panel: HSC status” value in [5] (day 11) is recorded as “HSC exhaustion”. Also, the megakaryopoiesis result in data set [5] (lower doses of niraparib) is reported as “increase in megakaryopoiesis”. In addition, the “time to significant increase in mouse platelet count” value in data set [5] (lower doses of niraparib, from initial administration) is listed as ≤ 7 days. Moreover, the “DNA damage accumulation in megakaryocytes, γH2AX immunofluorescence on long bones” value in data set [5] (niraparib group) is “Increased DNA damage accumulation”. Also, in [6], the “MK number in bone marrow by 2-photon intravital microscopy” value is recorded as “increased MK number”. For the same compound, in data set [7], the “platelet function / activation” value was “does not affect platelet function”. Also, the “megakaryocyte differentiation / megakaryopoiesis in vitro” value in data set [3] is on record as “reduce megakaryocyte differentiation”. Further, in data set [3] (lineage depleted bone marrow cells from WT mice, higher doses), the “megakaryocyte maturation in vitro at higher doses” value is “decreased maturation”. Also, the “megakaryocyte maturation in vitro at lower doses” value in [3] (lineage depleted bone marrow cells from WT mice, lower doses) is recorded as “increased megakaryocyte maturation”. Also, in [8], the ploidy in vitro entry is recorded as “increases ploidy”.

As to “Rituximab: treatment for ITP patients, which can take 4-6 weeks for peak results”, the “time for peak results” value in data set [9] is given as 4-6 weeks.
